# Patent US12629370B2, “Treatment of prostate cancer” (Sumitomo Pharma Co., Ltd., priority 2016, dated 2026)
# Values joined by “and” are separate entries in the source; they are usually repeats but may differ in a detail not shown here. Equal values may be shown once.
# Assays:
# PSA = experiment: Example 9: PSA; type: in vivo, human
# Procedure: Eligible male patients were aged ≥18 years with a histologically confirmed diagnosis of localized, intermediate-risk prostate cancer, for whom 6-month neoadjuvant and adjuvant androgen deprivation therapy (ADT) to external beam radiation therapy (EBRT) was indicated. The criteria for establishing intermediate-risk prostate cancer included the presence of one of the following, without any high-risk feature: T2b-T2c disease, Gleason score 7, or prostate-specific antigen (PSA) 10-20 ng/mL. Additional inclusion criteria included: EBRT scheduled to begin ≥12 weeks after baseline visit; screening serum testosterone >150 ng/dL (5.2 nmol/L); screening PSA concentration >2 ng/ml; body mass index ≥18.0 at screening or baseline (i.e., the subject's BMI prior to treatment commencing); Eastern Cooperative Oncology Group performance status of 0 or 1 at screening. Based on investigator discretion and clinical assessment of the patient's overall medical and disease status, participation was allowed for older patients with high-risk disease (e.g., based on Gleason score or tumor status) who were deemed likely to benefit from 6 months of neoadjuvant/adjuvant ADT. Most patients had intermediate-risk disease. However, a few patients, based on Gleason score or tumor, node, and metastasis staging system, were technically of higher than intermediate risk.
# Both treatment arms received treatment for 24 weeks. Patients remained on treatment for at least 12 weeks before the start of external beam radiation treatment (EBRT), which was initiated for most patients between Week 13, Day 1 and Week 15, Day 1. EBRT began no later than day 1, week 17.
# Patients were evaluated every 4 weeks during the treatment period (including day 1, week 25), at end of treatment (defined as week 29), during follow-up (week 33), and at end of study (EOS).
# Samples for testosterone, luteinizing hormone (LH), FSH, and PSA concentrations were taken at screening, on day 1 of the first week (additionally days 2 and 4 for testosterone and LH), and on day 1 of weeks 2, 3, 5, 9, 13, 17, 21, 25, 29, 33, and 37 thereafter. […] Suppression of FSH was less profound than that of LH, but consistent with the literature, and was greater than that observed with GnRH agonists.
# [1] = Example 6: plasma concentration of unchanged Compound 1 (LC-MS/MS); type: in vivo, human
# Procedure: (§1) Subjects in Cohort 1 received a load dose of 320 mg and a maintenance dose of 80 mg; subjects in Cohort 2 received a load dose of 320 mg and a maintenance dose of 120 mg; subjects in Cohort 3 received a load dose of 320 mg and a maintenance dose of 160 mg; and subjects in Cohort 4 received a load dose of 360 mg and a maintenance dose of 120 mg.
# (§2) In addition to the safety assessments, efficacy assessments were also performed according to the study schedule, and the Compound 1 formulation was administered until each subject met the discontinuation criteria.
# healthy men = experiment: Example 7: safety and tolerability in healthy men
# Procedure: The 40 mg dose was administered once per day with a single load dose of 360 mg on Day 1 of the 14 days of treatment administration. For the 20 mg dosages, one 20 mg dose was administered with loading doses of 320 mg on Day 1, 240 mg on Day 2, and 160 mg on Day 3, and the other 20 mg dose was administered with loading doses of 320 mg on Day 1 and 160 mg on Day 2. […] The 40 mg dose was administered with loading doses of 320 mg and 160 mg on Days 1 and 2 of treatment, respectively.
# serum testosterone = experiment: Example 9: serum testosterone, castration and recovery, neoadjuvant/adjuvant ADT to EBRT, versus degarelix; type: in vivo, human
# Procedure: Eligible male patients were aged ≥18 years with a histologically confirmed diagnosis of localized, intermediate-risk prostate cancer, for whom 6-month neoadjuvant and adjuvant androgen deprivation therapy (ADT) to external beam radiation therapy (EBRT) was indicated. The criteria for establishing intermediate-risk prostate cancer included the presence of one of the following, without any high-risk feature: T2b-T2c disease, Gleason score 7, or prostate-specific antigen (PSA) 10-20 ng/mL. […] Based on investigator discretion and clinical assessment of the patient's overall medical and disease status, participation was allowed for older patients with high-risk disease (e.g., based on Gleason score or tumor status) who were deemed likely to benefit from 6 months of neoadjuvant/adjuvant ADT.
# Both treatment arms received treatment for 24 weeks. […] EBRT began no later than day 1, week 17. […]
# Samples for testosterone, luteinizing hormone (LH), FSH, and PSA concentrations were taken at screening, on day 1 of the first week (additionally days 2 and 4 for testosterone and LH), and on day 1 of weeks 2, 3, 5, 9, 13, 17, 21, 25, 29, 33, and 37 thereafter.
# serum PSA = experiment: Example 6: serum PSA (CLEIA); type: in vivo, human
# Procedure: This study consisted of two parts: Part A, a dose-rising phase, and Part B, an expansion phase. Whether or not the study would proceed to the next cohort or to Part B was determined through assessment of tolerability at the present dose, based on the incidence of adverse effects during the evaluation period.
# as §1, §2
# [2] = test system: serum LH, FSH, DHT and SHBG; experiment: Example 6: serum LH, FSH, DHT and SHBG; type: in vivo, human; conditions: for serum LH, FSH and DHT concentrations: all dose levels
# [3] = subjects with at least 24 weeks of treatment
# [4] = Part A Day 28, Cohort 1 (320 mg load, 80 mg QD)
# [5] = Part A Day 28, Cohort 2 (320 mg load, 120 mg QD)
# [6] = Part A Day 28, Cohort 3 (320 mg load, 160 mg QD)
# [7] = Part B Week 13 Day 1 (LOCF), 120 mg group
compound,measurement,setting,value
"CONC(=O)Nc1ccc(-c2sc3c(c2CN(C)C)c(=O)n(-c2ccc(OC)nn2)c(=O)n3Cc2c(F)cccc2F)cc1 [Compound 1, N-(4-(1-(2,6-difluorobenzyl)-5-((dimethylamino)methyl)-3-(6-methoxy-3-pyridazinyl)-2,4-dioxo-1,2,3,4-tetrahydrothieno[2,3-d]pyrimidin-6-yl)phenyl)-N′-methoxyurea]",Median PSA,PSA; Baseline,7.3 µg/L
same,Median PSA,PSA; Week 24,0.07 µg/L
same,Median PSA,PSA; Week 28/EOT visit,0.07 µg/L
same,Median PSA,PSA; Week 32/follow-up,0.2 µg/L
same,Median PSA,PSA; Week 36/EOS,0.2 µg/L
same,average PSA level,PSA; by Week 13 Day 1 visit,< 0.2 ng/mL
same,patients achieving PSA values less than 0.2 ng/ml,PSA; by the end of 12 weeks,6 of 30
same,PSA % responses in most patients,"PSA; end of 8 weeks of dosing, before radiation therapy",exceed 89%
same,median Tmax,"[1]; Part A Day 1, load dose 320 mg, across cohorts",1.5 h
same,"mean Cmax, Ctrough and mean plasma AUC24 versus dose","[1]; Part A Days 14 and 28, 80 to 160 mg QD",generally increased proportionately with dose
same,median Tmax,"[1]; Part A Days 14 and 28, maintenance 80 to 160 mg QD",0.5 to 2.0 h
same,Tmax,"[1]; male, human, plasma, oral, Part A Day 1, load dose 320 mg, across cohorts, read-out: median Tmax",1 h
same,half-life,"[1]; male, human, plasma, oral, Part A Day 28, across cohorts, read-out: mean plasma T1/2",66.5 to 78.1 h
same,most common treatment emergent adverse events,healthy men; across all dose cohorts,"bradycardia, hot flush, and headache"
same,changes in QT/QTc intervals,healthy men; in vivo,consistent with those described in the literature with other medical castration agents
same,most common drug-related TEAE,healthy men; in vivo,hot flash
same,overall safety and tolerability,healthy men; single and multiple doses,safe and well tolerated
same,"deaths, SAEs or severe AEs",healthy men; single dose or multiple dose for 14 or 28 days,"no deaths, serious adverse events (SAEs), or severe AEs"
same,transaminases,healthy men; without symptoms or changes in total bilirubin,Mild to moderate transaminase elevations
same,visit by which average serum testosterone decreased below medical castration threshold of 50 ng/dL,serum testosterone; 120 mg QD after 320 mg load,Day 4
same,visit by which average serum testosterone decreased below profound castration threshold of 20 ng/dl,serum testosterone; 120 mg QD after 320 mg load,Week 5 Day 1
same,"Kaplan-Meier estimate (95% CI) of testosterone recovery, probability of event",serum testosterone; 4 weeks from last dose,0.03 (0.00.0.08)
same,Percent recovery (95% CI) to baseline testosterone or >280 ng/dL,serum testosterone; 4 weeks from last dose,3.1 (0.4.10.7) %
same,"Kaplan-Meier estimate (95% CI) of testosterone recovery, probability of event",serum testosterone; 8 weeks from last dose,0.24 (0.13.0.34)
same,Percent recovery (95% CI) to baseline testosterone or >280 ng/dL,serum testosterone; 8 weeks from last dose,23.1 (13.5.35.2) %
same,"Kaplan-Meier estimate (95% CI) of testosterone recovery, probability of event",serum testosterone; 12 weeks from last dose,045 (0.33.0.58)
same,Median testosterone,serum testosterone; Baseline,355.7 ng/dL
same,Testosterone Median,serum testosterone; Baseline,12.350 nmol/L
same,Testosterone Mean (Std Dev),"serum testosterone; Baseline, Compound 1 120 mg QD or degarelix 80 mg Q4W",14.067 (6.7100) nmol/L
same,Testosterone Median,serum testosterone; EOS,8.920 nmol/L
same,Testosterone Mean (Std Dev),serum testosterone; EOT,5.117 (5.7671) nmol/L
same,Testosterone Median,serum testosterone; EOT,3.260 nmol/L
same,Testosterone Mean (Std Dev),serum testosterone; Follow-Up,9.889 (6.3879) nmol/L
same,Testosterone Median,serum testosterone; Follow-Up,8.275 nmol/L
same,time after start of dosing at which serum testosterone was on average below medical castration levels,serum testosterone; Week 1 Day 4,72 h
same,Median testosterone,serum testosterone; Week 24,8.1 ng/dL
same,Testosterone Mean (Std Dev),"serum testosterone; Week 25, Day 1",0.395 (0.5584) nmol/L
same,Testosterone Median,"serum testosterone; Week 25, Day 1",0.280 nmol/L
same,Median testosterone,serum testosterone; Week 28/EOT visit,93.9 ng/dL
same,Median testosterone,serum testosterone; Week 32/follow-up,238.3 ng/dL
same,Median testosterone,serum testosterone; Week 36/EOS,256.9 ng/dL
same,patients recovered to baseline testosterone or >280 ng/dL,serum testosterone; by 8 weeks of follow-up,Nearly half
same,patients recovered to baseline testosterone or greater than 280 ng/dL,serum testosterone; end of 12-week follow-up,approximately half
same,mean serum testosterone after removal of therapy,serum testosterone; follow-up visit and end of study,approximately 10 nmol/L
same,Median time to medical castration (≤50 ng/dL),serum testosterone; in vivo,4 days
same,Median time to profound castration (≤20 ng/dL),serum testosterone; in vivo,15 days
same,medical castration rate (less than 50 ng/dL),"serum testosterone; over 24 weeks, overall",95%
same,profound castration rate (less than 20 ng/dL),"serum testosterone; over 24 weeks, overall",82%
same,Testosterone recovery (baseline or >280 ng/dL): number with events,serum testosterone; overall safety population,34 (52) n (%)
same,Testosterone recovery: number censored,serum testosterone; overall safety population,30 (46) n (%)
same,"Time to testosterone recovery, 25th percentile (95% CI)",serum testosterone; overall safety population,57 (45.62) days
same,"Time to testosterone recovery, 75th percentile (95% CI)",serum testosterone; overall safety population,127 (93.127) days
same,"Time to testosterone recovery, Median (95% CI)",serum testosterone; overall safety population,"91 (62, 127) days and 91 (62.127) days"
same,median (95% CI) number of days to testosterone recovery,serum testosterone; patients treated for at least 24 weeks,"86 (58, 93) days"
same,medical castration rate (less than 50 ng/dL),serum testosterone; [3],98%
same,profound castration rate (less than 20 ng/dL),serum testosterone; [3],84%
same,mean percentage change from baseline in serum PSA,serum PSA; [4],−76.37%
same,median percentage change from baseline in serum PSA,serum PSA; [4],−77.50%
same,mean percentage change from baseline in serum PSA,serum PSA; [5],−60.10%
same,median percentage change from baseline in serum PSA,serum PSA; [5],−72.30%
same,mean percentage change from baseline in serum PSA,serum PSA; [6],−32.10%
same,median percentage change from baseline in serum PSA,serum PSA; [6],−50.50%
same,median percentage change from baseline in serum PSA,"serum PSA; Part B Week 13 Day 1 (LOCF), 80 mg group",−97.20%
same,mean percentage change from baseline in serum PSA,serum PSA; [7],−93.11%
same,median percentage change from baseline in serum PSA,serum PSA; [7],−95.80%
same,"serum SHBG, baseline versus postdose",[2]; Part A,no particular changes
same,"serum LH, FSH and DHT concentrations",[2]; Part A,rapidly suppressed
same,"serum SHBG, baseline versus postdose",[2]; Part B,no particular changes
same,"serum LH, FSH and DHT concentrations",[2]; Part B,rapidly suppressed
